In patent US20230365602A1, “COMPOUND FOR USE IN THE TREATMENT OF PROTOZOAL DISEASES AND PROCESS FOR PRODUCTION OF SAID COMPOUND” (QUADREL S.R.L., priority 2020, published 2023):
“Also recorded” adds a separate entry of the source. Like-named read-outs stand apart in the source and are kept apart here.

What was measured:
[1] = molecular target: CYP2D6 (Homo sapiens, UniProt P10635); experiment: Early toxicity: CYP2D6 inhibition; type: in vitro ADME; settings: human, mean ± SD, Table 4a
[2] = tested on: Human Erythrocytes; experiment: In vitro Hemolytic Activity in Human Erythrocytes; type: cell-based; settings: for Hemolysis at 100 μM (%) / Hemolysis, HC50: human erythrocytes
Description: The assay, which is an indicator of the toxic insult of a compound on the erythrocyte membrane is performed essentially as described in (Calogeropoulou T. et al., J. Med. Chem. 2008, 51, 897-908). […] [table]

[3] = molecular target: T1, CYP1A2 (Homo sapiens, UniProt P05177); experiment: Early toxicity: CYP1A2 inhibition; type: in vitro ADME; settings: human, mean ± SD, Table 4a
T1 sequence (P05177 1-516): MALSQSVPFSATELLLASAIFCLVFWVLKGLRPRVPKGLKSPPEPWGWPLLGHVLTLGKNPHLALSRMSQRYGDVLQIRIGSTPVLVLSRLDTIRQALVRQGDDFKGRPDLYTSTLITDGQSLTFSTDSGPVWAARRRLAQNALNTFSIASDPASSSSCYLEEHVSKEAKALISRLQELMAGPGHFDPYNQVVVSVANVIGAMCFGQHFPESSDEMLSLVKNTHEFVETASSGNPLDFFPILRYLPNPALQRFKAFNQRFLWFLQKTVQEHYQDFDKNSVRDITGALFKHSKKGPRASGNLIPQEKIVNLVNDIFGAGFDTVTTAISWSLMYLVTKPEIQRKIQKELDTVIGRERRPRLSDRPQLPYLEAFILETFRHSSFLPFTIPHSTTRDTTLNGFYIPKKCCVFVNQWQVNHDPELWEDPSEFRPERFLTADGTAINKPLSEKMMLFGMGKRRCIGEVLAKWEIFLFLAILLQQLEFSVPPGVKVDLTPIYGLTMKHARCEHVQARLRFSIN

[4] = Toxicity MTT assay in PMA-differentiated THP-1 cells; type: cell-based, human; settings: human, PMA-differentiated THP-1 cells (macrophages); for CC50: THP-1 macrophages, Table 1, read-out: Toxicity CC50 ± SD or NOAEL; for IC50: Table 4b, read-out: Cytotoxicity THP-1 (IC50)
From the text: (§1) The in vitro antiparasitic activity against L. infantum (MHOM/MA/67/ITMAP-263) and the toxicity against THP-1 macrophages is presented in Table 1.

[5] = tested on: PMA-differentiated THP-1 cells; experiment: as above; type: cell-based, human; settings: for Toxicity MTT assay in PMA-differentiated THP-1 cells: Table 5
From the text: as §1

[6] = tested on: T. brucei brucei Lister 427 expressing red-shifted luciferase; experiment: Efficacy in HAT mice model (acute T. b. brucei infection), live imaging; type: in vivo, BALB/c mice; settings: for infection outcome (words): 50 mg/kg/day PO, 7 consecutive days
From the text: (B) Overall evolution of parasite burden assessed by live imaging using IVIS Lumina LT (Perkin Elmer) during and after treatment. T. b. brucei Lister 427 expressing red-shifted luciferase was used in these experiments. DX is the day post treatment. (C) Quantification of bioluminescent signal plotted as average radiance (p/s/cm^2/sr) during and after treatment.
In addition, 5-cyclopentadecylpentyl (2-(trimethylammonio) ethyl) phosphate (19) was effective per os in vivo against T. brucei acute model of infection and also against the long lasting chronic infection model. […] The daily treatment with 50 mg/kg for 13 days lead to a significant decrease of infection and increase in animal survival. […] Altogether 5-cyclopentadecylpentyl (2-(trimethylammonio) ethyl) phosphate (19) is effective in the BALB/c infection model for T. brucei being a possible therapeutical option both for HAT stage I and II.
T. brucei brucei Lister 427 expressing red-shifted luciferase was used in these experiments as described for L. infantum in vivo infection in (Graça N A et al., Antimicrob Agents Chemother. 2016 Mar. 25; 60(4):2532-6). The overall evolution of parasite burden assessed by live imaging using IVIS Lumina LT (Perkin Elmer) during and after treatment. […] To confirm this possibility, the treated mice immune system was suppressed with cyclophosphamide. […] The advantage over pentamidine is the oral administration of compound 19 versus ip administration of pentamidine.

[7] = tested on: A549; experiment: Early toxicity: A549 cell growth; type: cell-based; settings: for Avg % Cell growth A549: Table 5
[8] = molecular target: HDAC9 (Homo sapiens, UniProt Q9UKV0); experiment: HDAC9 activity inhibition; type: biochemical
[9] = molecular target: HDAC4 (Homo sapiens, UniProt P56524); experiment: HDAC4 activity inhibition; type: biochemical
[10] = tested on: L. infantum intracellular amastigotes LEM235; experiment: Anti-leishmanial activity, L. infantum LEM235 intracellular amastigotes; type: cell-based; settings: for IC50: Leishmania infantum, read-out: L. infantum intracellular amastigotes LEM235 IC50 ± SEM
From the text: The in vitro antiparasitic activity of compound 5-cyclopentadecylpentyl (2-(trimethylammonio)ethyl) phosphate (19) against L. infantum (2 species), L. amazonensis, L. donovani and L. major is presented in Table 3, as well as the toxicity against the human monocytic cell Line THP1 and PMA-differentiated THP-1 cells.

[11] = tested on: W1-38; experiment: Early toxicity: W1-38 cell growth; type: cell-based; settings: for Avg % Cell growth W1-38: Table 5
[12] = tested on: L. infantum (MHOM/MA/67/ITMAP-263) intracellular amastigotes; experiment: Anti-parasitic activity against L. infantum intracellular amastigotes (infection with axenic amastigotes luciferase positive); type: cell-based
[13] = Gel formation in saline solutions of NaCl; type: physicochemical; settings: same conditions
Description: This effect is more pronounced at concentrations between 7 and 40 mg/mL at a temperature range between 20° C. and 40° C., preferably at ambient temperature. The homogeneity of the product facilitates homogeneity of dosing, i.e, variability among doses is lower, easy administration of the compound and higher patient acceptability.

[14] = tested on: T. b. brucei L427 WT Blood-Stream Form; experiment: Anti-parasitic activity against T. b. brucei blood-stream form (resazurin 72 h assay); type: cell-based; settings: for IC50: 72 h, read-out: Dose Response Curves IC50 ± SD (μM)
[15] = molecular target: T2, hERG channel (Homo sapiens, UniProt Q12809); experiment: in vitro
[16] = molecular target: T2, hERG channel
[17] = in humans; cited from earlier work

Sequence of CYP2D6 (P10635 whole entry): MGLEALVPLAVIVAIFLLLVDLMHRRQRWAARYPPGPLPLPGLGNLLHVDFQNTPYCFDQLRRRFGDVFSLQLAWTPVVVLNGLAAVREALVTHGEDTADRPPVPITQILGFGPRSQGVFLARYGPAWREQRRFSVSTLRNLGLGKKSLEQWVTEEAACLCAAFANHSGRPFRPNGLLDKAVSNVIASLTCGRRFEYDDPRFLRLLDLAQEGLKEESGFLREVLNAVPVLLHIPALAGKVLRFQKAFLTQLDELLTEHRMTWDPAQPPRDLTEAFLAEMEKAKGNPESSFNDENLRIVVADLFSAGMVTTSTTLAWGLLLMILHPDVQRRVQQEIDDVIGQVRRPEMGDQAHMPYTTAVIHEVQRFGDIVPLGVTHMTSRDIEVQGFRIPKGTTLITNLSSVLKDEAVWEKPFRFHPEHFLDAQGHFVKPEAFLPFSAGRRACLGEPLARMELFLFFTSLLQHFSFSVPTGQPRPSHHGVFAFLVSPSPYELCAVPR
Sequence of HDAC9 (Q9UKV0 whole entry, species assumed): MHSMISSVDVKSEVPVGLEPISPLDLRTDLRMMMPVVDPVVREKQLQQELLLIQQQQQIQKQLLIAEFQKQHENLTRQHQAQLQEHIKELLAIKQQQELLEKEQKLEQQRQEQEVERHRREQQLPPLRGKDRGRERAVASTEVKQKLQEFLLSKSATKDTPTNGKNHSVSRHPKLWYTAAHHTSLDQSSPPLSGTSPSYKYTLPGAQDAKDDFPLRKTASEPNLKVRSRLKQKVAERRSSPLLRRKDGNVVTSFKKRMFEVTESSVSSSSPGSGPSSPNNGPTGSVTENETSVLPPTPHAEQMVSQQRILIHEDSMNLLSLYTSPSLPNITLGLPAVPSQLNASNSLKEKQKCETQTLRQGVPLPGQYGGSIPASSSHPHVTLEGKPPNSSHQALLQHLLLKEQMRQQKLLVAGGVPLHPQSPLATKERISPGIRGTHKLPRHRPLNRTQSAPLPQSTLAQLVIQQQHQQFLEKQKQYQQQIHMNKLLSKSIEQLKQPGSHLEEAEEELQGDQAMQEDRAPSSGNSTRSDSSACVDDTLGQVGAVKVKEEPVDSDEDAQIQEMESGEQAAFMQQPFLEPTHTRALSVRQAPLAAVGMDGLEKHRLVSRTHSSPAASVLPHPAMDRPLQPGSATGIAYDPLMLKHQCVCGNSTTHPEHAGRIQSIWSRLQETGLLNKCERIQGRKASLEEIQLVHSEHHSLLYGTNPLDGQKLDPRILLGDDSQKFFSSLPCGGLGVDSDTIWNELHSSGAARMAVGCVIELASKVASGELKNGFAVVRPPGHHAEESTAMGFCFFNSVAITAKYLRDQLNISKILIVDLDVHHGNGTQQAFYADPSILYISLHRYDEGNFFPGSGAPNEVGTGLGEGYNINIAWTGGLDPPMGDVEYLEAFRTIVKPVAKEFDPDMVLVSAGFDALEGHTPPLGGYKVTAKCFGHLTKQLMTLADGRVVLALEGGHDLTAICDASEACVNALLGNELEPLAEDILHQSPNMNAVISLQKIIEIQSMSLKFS
Sequence of HDAC4 (P56524 whole entry, species assumed): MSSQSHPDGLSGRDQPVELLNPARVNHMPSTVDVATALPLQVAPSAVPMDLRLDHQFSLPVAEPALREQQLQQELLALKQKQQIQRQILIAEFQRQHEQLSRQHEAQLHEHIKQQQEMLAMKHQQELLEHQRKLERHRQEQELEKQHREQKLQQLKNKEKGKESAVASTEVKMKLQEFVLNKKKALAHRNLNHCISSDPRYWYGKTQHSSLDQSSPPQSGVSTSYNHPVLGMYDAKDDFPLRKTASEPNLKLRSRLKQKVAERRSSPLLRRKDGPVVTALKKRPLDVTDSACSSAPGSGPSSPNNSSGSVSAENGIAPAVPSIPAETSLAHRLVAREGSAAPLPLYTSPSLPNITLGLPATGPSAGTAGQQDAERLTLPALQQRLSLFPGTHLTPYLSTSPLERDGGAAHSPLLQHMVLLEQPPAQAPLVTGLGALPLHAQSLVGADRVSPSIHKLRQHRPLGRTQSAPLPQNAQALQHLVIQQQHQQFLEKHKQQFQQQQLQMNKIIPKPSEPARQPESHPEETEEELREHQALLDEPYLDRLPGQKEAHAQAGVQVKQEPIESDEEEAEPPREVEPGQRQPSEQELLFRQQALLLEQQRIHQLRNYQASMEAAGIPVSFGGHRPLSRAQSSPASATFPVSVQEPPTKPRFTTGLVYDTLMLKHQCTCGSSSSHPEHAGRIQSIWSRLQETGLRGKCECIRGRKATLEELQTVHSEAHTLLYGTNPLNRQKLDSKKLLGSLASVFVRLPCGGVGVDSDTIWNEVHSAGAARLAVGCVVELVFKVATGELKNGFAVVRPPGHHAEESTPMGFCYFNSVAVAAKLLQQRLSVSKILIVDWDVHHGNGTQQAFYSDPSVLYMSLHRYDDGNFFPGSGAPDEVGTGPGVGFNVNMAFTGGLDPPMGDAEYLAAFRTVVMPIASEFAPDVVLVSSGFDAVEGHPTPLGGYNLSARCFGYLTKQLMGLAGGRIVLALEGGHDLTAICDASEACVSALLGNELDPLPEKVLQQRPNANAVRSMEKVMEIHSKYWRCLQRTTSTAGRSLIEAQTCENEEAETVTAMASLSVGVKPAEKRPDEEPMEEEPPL
T2 sequence (Q12809 whole entry): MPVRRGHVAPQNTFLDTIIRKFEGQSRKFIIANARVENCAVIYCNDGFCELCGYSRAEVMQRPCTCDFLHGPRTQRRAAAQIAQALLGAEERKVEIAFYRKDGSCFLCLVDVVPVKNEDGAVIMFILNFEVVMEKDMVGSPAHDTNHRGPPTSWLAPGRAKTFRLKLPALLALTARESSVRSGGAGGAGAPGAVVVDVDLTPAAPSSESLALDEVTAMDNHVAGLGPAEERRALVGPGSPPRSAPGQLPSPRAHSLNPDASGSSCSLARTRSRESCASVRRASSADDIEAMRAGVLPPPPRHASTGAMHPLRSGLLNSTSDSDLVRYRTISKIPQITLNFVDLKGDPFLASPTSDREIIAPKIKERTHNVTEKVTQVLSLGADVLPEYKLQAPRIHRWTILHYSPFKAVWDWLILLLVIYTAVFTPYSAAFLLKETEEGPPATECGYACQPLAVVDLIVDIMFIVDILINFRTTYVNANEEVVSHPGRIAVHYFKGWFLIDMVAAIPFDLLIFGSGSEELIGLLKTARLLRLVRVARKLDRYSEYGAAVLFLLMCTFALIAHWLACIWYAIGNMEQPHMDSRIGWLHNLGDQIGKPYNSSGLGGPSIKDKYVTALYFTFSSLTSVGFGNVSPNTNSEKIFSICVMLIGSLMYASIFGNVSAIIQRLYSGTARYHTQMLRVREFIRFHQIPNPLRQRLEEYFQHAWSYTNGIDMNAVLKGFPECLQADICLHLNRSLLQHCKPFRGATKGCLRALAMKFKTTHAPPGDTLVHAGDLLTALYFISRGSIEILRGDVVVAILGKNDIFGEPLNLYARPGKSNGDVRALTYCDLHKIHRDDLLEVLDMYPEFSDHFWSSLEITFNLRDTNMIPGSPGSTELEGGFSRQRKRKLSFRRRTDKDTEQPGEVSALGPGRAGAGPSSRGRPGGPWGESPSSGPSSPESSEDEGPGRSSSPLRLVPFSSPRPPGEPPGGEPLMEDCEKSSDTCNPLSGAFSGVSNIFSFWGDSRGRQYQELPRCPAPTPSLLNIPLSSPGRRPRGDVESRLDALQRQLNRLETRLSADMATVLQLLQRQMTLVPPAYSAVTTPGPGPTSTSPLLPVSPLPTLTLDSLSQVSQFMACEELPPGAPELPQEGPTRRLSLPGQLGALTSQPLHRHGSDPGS

C[N+](C)(C)CCOP(=O)([O-])OCCCCCC1CCCCCCCCCCCCCC1 [Compound 19, 5-cyclopentadecylpentyl (2-(trimethylammonio)ethyl) phosphate]
inhibition at 10 µM [1]: -50.7 ± 3.45% | percentage of hemolytic activity lower than miltefosine ([2]; 100 μM): approximately 11 fold | Hemolysis at 100 μM (%) ([2]; 100 μM): 8.7% | Hemolysis, HC50 [2]: >100 µM | inhibition at 10 µM [3]: -32.1 ± 9.3% | CC50 [4]: > 100 µM | IC50 [4]: > 100 µM | CC50 ([5]; MTT assay in PMA-differentiated THP-1 cells, Table 3, read-out: Toxicity CC50 ± SD): > 100 µM | CC50 ([5]; Table 2, read-out: Toxicity CC50 ± SD or NOAEL): > 100 µM | Toxicity MTT assay in PMA-differentiated THP-1 cells [5]: >100 µM | infection outcome (words) [6]: eliminated the infection; also recorded: full clearance of infection | relapse after treatment ([6]; 3 weeks after treatment, also after cyclophosphamide immune suppression): no relapse was detected | % cell growth A549 ([7]; 10 μM, 100% = not cytotoxic, 0% = cytostatic, −100% = cytotoxic): 108.28 ± 0.09% | Avg % Cell growth A549 ([7]; 10 μM): 108.28 ± 0.09 (10 μM) % | inhibition of the activity of HDAC9 ([8]; 100 μM): does not inhibit | inhibition of the activity of HDAC4 ([9]; 100 μM): does not inhibit | IC50 [10]: 0.7 ± 0.4 µM | Selectivity Index CC50/IC50 ([10]; THP1 CC50 / IC50 L. infantum LEM235): 714 | % cell growth W1-38 ([11]; 10 μM): 95.66 ± 19.68% | Avg % Cell growth W1-38 ([11]; 10 μM): 95.66 ± 19.68 (10 μM) % | inhibition at 10 µM ([12]; Leishmania infantum, 10 μM, Table 1, read-out: Single Dose Assay 10 μM Mean Inhibitory Activity (%) ± SD): 78 ± 2% | IC50 ([12]; Leishmania infantum, Table 1, read-out: Dose Response Curves IC50 ± SD): 1.4 ± 0.1 µM | IC50 ([12]; Leishmania infantum, Table 3, read-out: L. infantum intracellular amastigotes (MHOM/MA/67/ITMAP-263) IC50 ± SEM): 1.4 ± 0.1 µM | Selectivity Index CC50/IC50 or NOAEL/IC50 ([12]; PMA-differentiated THP-1 CC50 / IC50 L. infantum MHOM/MA/67/ITMAP-263, Table 3): >71 | Selectivity Index CC50/IC50 or NOAEL/IC50 ([12]; THP-1 toxicity / L. infantum IC50, Table 1): >71 | gel formation [13]: homogeneous gel product | activity against T. b. brucei blood-stream form ([14]; Table 2): unexpectedly high activity in the low micromolar range | IC50 ([14]; Trypanosoma brucei): 4.47 ± 0.2 µM | inhibition at 10 µM ([14]; Trypanosoma brucei, read-out: Single Dose Assay 10 μM Mean Inhibitory Activity (%) ± SD): 99 ± 1% | Selectivity Index CC50/IC50 or NOAEL/IC50 ([14]; toxicity / T. b. brucei IC50, Table 2): >22

CCCCCCCCCCCCCCCCOP(=O)([O-])OCC[N+](C)(C)C [Miltefosine, hexadecylphosphocholine, reference compound]
inhibition at 10 µM [1]: 30.8 ± 16.7% | Hemolysis at 100 μM (%) ([2]; 100 μM): 96.1% | Hemolysis, HC50 [2]: 38.3 ± 2.8 µM | inhibition at 10 µM [3]: -20.6 ± 11.8% | CC50 [4]: 15.9 ± 1.2 µM | IC50 [4]: 15.9 ± 1.2 µM | Toxicity MTT assay in PMA-differentiated THP-1 cells [5]: 15.9 ± 1.2 µM | inhibition at 10 µM [15]: -16.9 ± 7.34% | infection outcome (words) [6]: no in vivo activity | infection outcome (words) ([6]; listed as miltefosine): did not work at all | Avg % Cell growth A549 ([7]; 10 μM): 95.80 ± 15.78 (10 μM) % | % cell growth A549 ([7]; at 1 μM): 95.8 ± 15.78% | Flag for Interference, hERG [16]: (no) | inhibition of the activity of HDAC9 ([8]; 10 μM): did not inhibit | inhibition of the activity of HDAC4 ([9]; 10 μM): did not inhibit | IC50 [10]: 6.7 ± 1 µM | half-life [17]: 100 to 200 h | Avg % Cell growth W1-38 ([11]; 10 μM): 113.50 ± 26.66 (10 μM) % | % cell growth W1-38 ([11]; at 1 μM): 113.5 ± 26.66% | IC50 ([12]; Leishmania infantum, read-out: Dose Response Curves IC50 ± SD (μM)): 2.51 ± 1.73 µM | IC50 ([12]; Leishmania infantum, read-out: L. infantum intracellular amastigotes (MHOM/MA/67/ITMAP-263) IC50 ± SEM (μM)): 3.2 ± 1.4 µM | gel formation [13]: not observed | IC50 ([14]; Trypanosoma brucei): 33.9 ± 0.5 µM
